US11613533B2, “Compounds useful for inhibiting RET kinase” (Eli Lilly and Company, priority 2020, dated 2023)

Columns and labels:
[1] = target: T1, V804M mutant RET kinase (N-terminal GST tagged recombinant human V804M mutant RET cytoplasmic domain, aa 658-end) (Homo sapiens, UniProt P07949, V804M); assay: RET enzyme assay (HTRF KinEASE TK), V804M; format: biochemical; details: 1 mM ATP, 40 min incubation at 22° C.
T1 construct: human V804M mutant RET cytoplasmic domain (aa 658-end); GST (N); purchased Millipore 14-760
T1 sequence (P07949 658-1114 V804M limits assumed): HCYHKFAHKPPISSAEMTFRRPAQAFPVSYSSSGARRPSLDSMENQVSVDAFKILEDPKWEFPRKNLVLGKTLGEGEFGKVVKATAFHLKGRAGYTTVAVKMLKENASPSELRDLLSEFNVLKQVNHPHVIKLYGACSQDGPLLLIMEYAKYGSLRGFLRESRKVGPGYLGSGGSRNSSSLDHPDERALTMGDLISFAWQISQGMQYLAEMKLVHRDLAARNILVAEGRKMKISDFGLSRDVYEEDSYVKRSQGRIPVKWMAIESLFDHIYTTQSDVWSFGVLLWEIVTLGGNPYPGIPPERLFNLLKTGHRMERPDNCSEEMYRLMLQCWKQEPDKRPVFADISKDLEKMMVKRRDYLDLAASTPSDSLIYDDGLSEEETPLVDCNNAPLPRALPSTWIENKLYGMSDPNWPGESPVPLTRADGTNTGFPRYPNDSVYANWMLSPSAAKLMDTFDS
Procedure: Assay A: RET Enzyme Assay
Compounds of formulas I, II, or III are screened for their ability to inhibit wildtype, V804M, and G810S mutant RET kinase using CisBio's HTRF® KinEASE™TK assay technology. N-terminal GST tagged recombinant human RET cytoplasmic domain (aa 658-end) from Eurofins ([…]; Catalog No. 14-570M) or N-terminal GST tagged recombinant human V804M mutant RET cytoplasmic domain (aa 658-end) from Millipore (1.25 nM enzyme; Catalog No. 14-760) or N-Terminal GST-tagged recombinant human G810S (aa-658-end) (1.25 nM Enzyme; produced in insect cells) is incubated with 62.5 nM TK-substrate biotin (CisBio, part of Catalog No. 62TK0PEC) and 1 mM ATP along with test compound (0.4% final DMSO in the assay) in a 1× Cisbio enzymatic buffer consisting of […], 5 mM MgCl2, 0.04% BSA and 0.05% Tween20 in a volume of 10 μL. Compounds are typically prepared in a threefold serial dilution in DMSO and added to the assay to give the appropriate final concentration. After a 40-60 min (40 min for V804M, 60 min for WT and G810S) incubation at 22° C., the reaction is quenched by adding quench solution (10 μL) containing 7.8 nM Streptavidine-XL665 and 0.5×TK-ab-Cryptate in HTRF detection buffer (all from CisBio, part of Cat. No. 62TK0PEC). After a 60-80 min incubation (60 minutes for WT, 80 minutes for V804M and G810S) at 22° C., the extent of reaction is determined using a PHERastar plate reader via HTRF detection at excitation/emission 337/665 nm. Percent of inhibition is calculated with 0% inhibition referring to control conditions containing no compound (0.4% DMSO only) and 100% inhibition represented by conditions containing no enzyme. The % inhibition values are fit to a 4 parameter logistic curve, and the determined IC50 value is defined as the estimated concentration of inhibitor at the inflexion point of the fitted curve.

[2] = target: T2, KIF5B-RET mutant form V804M in HEK293 cells (Homo sapiens, UniProt P07949, V804M); assay: RET cell assay (In-Cell Western, phospho-RET Y1062), V804M; format: cell-based; details: HEK293, doxycycline-induced KIF5B-RET V804M, 1 hr compound treatment; read-out: EC50, inhibition of intracellular autophosphorylation of RET at tyrosine 1062, V804M cells
T2 construct: expressed in transfected cells; host or cells: HEK293; the other entry of the earlier key: KIF5B (P33176, Kinesin-1 heavy chain)
T2 sequence (P07949 713-1063 V804M limits assumed): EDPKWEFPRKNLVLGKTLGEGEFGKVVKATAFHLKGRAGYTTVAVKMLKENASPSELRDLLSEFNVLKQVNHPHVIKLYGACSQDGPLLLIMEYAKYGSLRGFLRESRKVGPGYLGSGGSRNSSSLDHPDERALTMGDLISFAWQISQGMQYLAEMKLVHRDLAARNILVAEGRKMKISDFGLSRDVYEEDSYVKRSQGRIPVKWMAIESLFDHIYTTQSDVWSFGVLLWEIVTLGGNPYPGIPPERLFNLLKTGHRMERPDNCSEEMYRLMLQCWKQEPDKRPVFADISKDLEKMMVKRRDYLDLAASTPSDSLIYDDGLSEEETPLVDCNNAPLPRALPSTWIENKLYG
Procedure: Compounds of formulas (I), (II), and (III) are screened for their ability to inhibit the intracellular autophosphorylation of RET at tyrosine 1062 as detected by In-Cell Western. HEK293 cells containing a doxycycline-inducible plasmid for inducible expression of KIF5B-RET WT and RET mutant forms V804M and G810S are seeded at 25,000 cells/well into black poly-D-lysine pre-coated 384-well plates (Corning, Catalog No. 356697). Expression of KIF5B-RET is induced with doxycycline at 1 μg/mL and cells are incubated at 37° C. overnight. Compounds are prepared in a threefold serial dilution in DMSO before further diluting 1:100 in media prior to the addition to the cells (0.1% final DMSO concentration). Compound treatment is performed for 1 hr at 37° C. followed by fixation of cells with 4% formaldehyde for 20 min at RT and cell permeabilisation with ice-cold MeOH for 10 min at RT. Cells are incubated with Intercept® blocking buffer (Li—COR, Catalogue No. 927-70010) for 1 hr at RT. Incubation with primary antibodies against human phospho-RET (Y1062) (R&D, Catalogue No. AF5009, 1/250 dilution) and human glyceraldehyde-3-phosphate dehydrogenase (clone 6C5, Merck, Catalog No. MAB374, 1/1000 dilution) are performed overnight at 4° C. Incubation with secondary antibodies IRDye® 800CW goat anti-rabbit IgG (Li—COR, Catalogue No. 926-32211, 1/1000 dilution) and IRDye® 680CW goat anti-mouse IgG (Li—COR, Catalogue No. 926-68070, 1/1000 dilution) are performed for 1 hr at RT. All antibody dilutions are done in Intercept® blocking buffer containing 0.05% Tween20. After washing cells with PBS-T (Cell Signaling technology, Catalogue No. 9809), the images are acquired on a Li—COR Odyssey LCx at 700 and 800 nm. Percent of DMSO control is calculated with 100% signal referring to control conditions containing no compound (0.4% DMSO only) and 0% signal represented by conditions containing control compound. The % of DMSO control values are fit to a 4 parameter logistic curve, and the determined EC50 value is defined as the estimated concentration of inhibitor at the inflexion point of the fitted curve.

Structure (SMILES)	IC50 [1] [nM]	EC50 [2] [nM]
CC(C(=O)Nc1cc(C(C)(C)C(C)(F)F)on1)c1ccc(-c2nn(C(C)C)c(N)c2C(N)=O)cc1 (single isomer, unassigned; isomer 2) [Example 76, 5-Amino-3-[4-(1-[[5-(3,3-difluoro-2-methylbutan-2-yl)-1,2-oxazol-3-yl]carbamoyl]ethyl)phenyl]-1-isopropylpyrazole-4-carboxamide, Isomer 2]	< 100	< 100
CC(C(=O)Nc1cc(C(C)(C)C)sn1)c1ccc(-c2nn(C(C)C)c(N)c2C(N)=O)cc1 (single isomer, unassigned; isomer 2) [Example 80, 5-Amino-3-(4-[1-[(5-tert-butyl-1,2-thiazol-3-yl)carbamoyl]ethyl]phenyl)-1-isopropylpyrazole-4-carboxamide, isomer 2]	< 100	< 100
CCC(C)(C)c1cc(NC(=O)C(C)c2ccc(-c3nn(C(C)C)c(N)c3C(N)=O)cn2)on1 (single isomer, unassigned; isomer 2) [Example 84, 5-Amino-1-isopropyl-3-[6-[2-[[3-(1,1-dimethylpropyl)isoxazol-5-yl]amino]-1-methyl-2-oxo-ethyl]-3-pyridyl]pyrazole-4-carboxamide, Isomer 2]	< 100	< 100
CC(C(=O)Nc1cc(C(C)(C)C(F)(F)F)no1)c1ccc(-c2nn(C(C)C)c(N)c2C(N)=O)cn1 (single isomer, unassigned; isomer 2) [Example 90, 5-Amino-1-isopropyl-3-[6-[1-methyl-2-oxo-2-[[3-(2,2,2-trifluoro-1,1-dimethyl-ethyl)isoxazol-5-yl]amino]ethyl]-3-pyridyl]pyrazole-4-carboxamide, Isomer 2]	< 100	< 100
CC(C(=O)Nc1cc(-c2ccc(Cl)cc2Cl)no1)c1ccc(-c2nn(C(C)C)c(N)c2C(N)=O)cn1 (single isomer, unassigned; isomer 2) [Example 94, 5-Amino-1-isopropyl-3-[6-[2-[[3-(2,4-dichlorophenyl)isoxazol-5-yl]amino]-1-methyl-2-oxo-ethyl]-3-pyridyl]pyrazole-4-carboxamide, Isomer 2]	< 100	< 100
